Data reported in patent US20200384072A1, “THERAPY OF IONIZING RADIATION-INDUCED DISORDERS” (SCK-CEN, priority 2019, published 2020).
“Also recorded” adds a separate entry of the source.

Tests used:
TICAE cells = test: Scrape loading and dye transfer (SLDT), gap junctional coupling after irradiation, TICAE cells; assay type: cell-based, human; details: Carbenoxolone 50 μM, single 0.1 or 5 Gy, 6 h and 72 h p.i.
Protocol: (§1) The scrape loading and dye transfer assay (SLDT) was used to assess gap junctional function after IR exposure. TICAE and TIME cells were seeded in a 24-well plate at a density of 1×10^5 cells/well in four to six biological replicates. Three days later, cells reached 100% confluence and the medium was refreshed before irradiation with 1 ml/well for single irradiation experiment and 1.5 ml for fractionated irradiation experiment. At different time points after irradiation (6 and 72 h post single irradiation, or 72 h post fractionated irradiation) the cells were washed 3 times with a scrape loading and dye transfer (SLDT) buffer (137 mM NaCl, 5.36 mM KCl, 0.81 mM MgCl2, 5.55 mM […], 25 mM HEPES, pH 7.4). Then, the cells were incubated with a SLDT solution composed of SLDT buffer and 400 μM 6-carboxyfluorescein (6-CF, 0.376 kDa) (Sigma-Aldrich Co. LCC, Diegem, Belgium) for one minute. A vertical scratch was made in the middle of each well, using a 20G needle (Becton Dickinson, Erembodegem, Belgium). After another one minute incubation, the cells were washed 6 times with HMS supplemented with 25 mM HEPES (Sigma-Aldrich Co. LCC, Diegem, Belgium). […] The relative area of 6-CF transfer was calculated using FIJI software. By analyzing the area of the dye diffusion from the first line of cells to adjacent cells, the gap junctional coupling was determined.

RBE4 cells [1] = test: Cytosolic Ca2+ imaging after medium transfer from irradiated to recipient RBE4 cells; assay type: cell-based, rat; details: for AUC of Ca2+ transients in recipient bystander cells: inhibitor added to the irradiated culture 30 min before irradiation, NALC 1 mM; for [Ca2+]i responses in recipient cells: inhibitor added to the recipient cells, PPADS 50 μM
Protocol: Cells were seeded on glass coverslips (18 mm 0) coated with 3.5 μg/cm^2 Corning cell-tak (VWR, Leuven, Belgium) and ester loaded for 45 min with 10 μM Fluo-3-AM in HBSS-HEPES supplemented with 1 mM of probenecid and 0.01% of pluronic F127 at room temperature followed by de-esterification over 15 min. Imaging was performed using an inverted fluorescence microscope equipped with a ×40 oil immersion objective and an EM-CCD camera (QuantEM™ 512SC CCD camera, Photometrics, Tucson, Ariz.). For direct Ca^2+ measurements the loaded cells were irradiated and transferred to the microscopy stage. For medium transfer, the loaded cells were superfused for 1 min with HBSS-Hepes (1 mM), followed by 4 min with HBSS-Hepes conditioned by irradiated cultures. Fluorescence intensity changes in the cells were analyzed with custom-developed FluoFrames software (L. Leybaert, Ghent, Belgium). Ca^2+ changes were quantified as the area under the curve (AUC) of the Ca^2+ traces.

RBE4 cells [2] = test: Irradiation-induced ATP release, RBE4 cells; assay type: cell-based, rat; details: broad-beam 1 Gy, 5 min post-irradiation, BAPTA-AM 10 μM, NALC 1 mM, c-PTIO 100 μM
Protocol: ATP was measured using a luciferin-luciferase assay kit (Sigma-Aldrich) in combination with a luminometer plate reader (Victor3 1420 multi label counter; Perkin Elmer, Zaventem, Belgium).
Extracellular ATP measurements were initially carried out at different time-points post-irradiation, the effect of blockers on ATP release was tested at the 5 min post-irradiation time-point (time of maximum ATP release).

TIME cells = test: Scrape loading and dye transfer (SLDT), gap junctional coupling after irradiation, TIME cells; assay type: cell-based, human; details: Carbenoxolone 50 μM, single 0.1 or 5 Gy, 6 h and 72 h p.i.
Protocol: as §1

[3] = tested on: primary brain microvascular endothelial cells (pBMECs); test: γ-H2AX counts after local 3×3 mm X-ray irradiation (irradiated and bystander zones), pBMECs; assay type: cell-based, mouse; details: 1 Gy, 3 h post-irradiation
Protocol: Cortices, from 10-12 week old mice, were isolated by removing cerebellum, striatum, optic nerves, brain white matter, outer vessels and meninges. After homogenization with a Dounce homogenizer in WBB (Washing Buffer B: HMS, 10 mM Hepes, 0.35 g/L NaHCO3, 0.1% BSA), the homogenate was mixed with 30% dextran in WBB and centrifuged at 3000×g for 25 min at 4° C. The pellet containing the vascular component was then resuspended in WBB and filtered through a 60 μm NY60 Nylon Net Filter (Millipore, Darmstadt, Germany). Following centrifugation at 1000×g for 7 min at room temperature, the pellet was digested in collagenase/dispase supplement with DNase I (Roche Diagnostics, Vilvoorde, Belgium) and TLCK (Tosyl, Lysin chloromethyl ketone, sigma-aldrich) for 33 min at 37° C. in a shaking water bath. The digested capillary suspension was then seeded after multiple washing steps on wells coated with matrigel or glass coated with Corning Cell-Tak (VWR, Leuven, Belgium). For the isolation of intact capillaries the protocol was aborted just before the digestion step.
(§2) A defined area of the cell culture dishes were exposed to X-rays (1Gy or 20 Gy) by using a small animal radiation research platform (SARRP, Xstrahl, 220 kV, 13 mA), making use of a 3×3 mm collimator. Whole dish irradiation was done using a 10×10 cm broad-beam collimator, while localized Irradiation was performed with a 3×3 mm collimator. A Gafchromic RTQA2 film, with a sensitivity of 0.02 Gy, was placed underneath the cell dishes in order to delineate the irradiated zone.
(§3) Cells were fixed for 25 min with 4% formaldehyde (VWR) and blocked for 30 min with blocking buffer (5% normal goat serum, 1% bovine serum albumin (BSA), 0.2% Triton X-100 in PBS D+). Overnight incubation with primary antibody (1/500 anti-γ-H2AX in dilution buffer, 1/10 blocking buffer in PBS D+) was followed by a 1 h incubation with 1/400 XX-biotin-goat-anti-mouse antibody in dilution buffer, followed by a 1 h incubation with 1/400 streptavidin-alexa488 in PBS D+. Nuclei were stained with 1 μg/mL DAPI in PBS D+ for 10 min and cells were kept in PBS D+ supplemented with NaN3 at 4° C. All steps except the overnight incubation which was carried out at 4° C., were carried out at room temperature and cell cultures were rinsed thoroughly with PBS D+ between all incubation steps. Imaging was performed with an automated BD Pathway 435 imaging system (10× objective, 10×10 montage resulting in an overall image size of 8.5×6.5 mm). We then quantified the number of γ-H2AX-foci positive nuclei in the directly irradiated and bystander areas and expressed the count as a percentage relative to the number of nuclei and subtracted the percentage of background γ-H2AX signal in non-irradiated paired control cultures for each experiment. For counting γ-H2AX foci, images were thresholded to remove background pixel noise below the foci level. Where applicable, results were normalized against vehicle (bar charts with a 100% vehicle bar without statistical variability or a horizontal line).

RBE4 cells [4] = test: γ-H2AX counts after local 3×3 mm X-ray irradiation (irradiated and bystander zones), RBE4 cells; assay type: cell-based, rat; details: 1 Gy, 3 h post-irradiation, Cbx 50 μM, Gap26 161 μM, TAT-Gap19 200 μM, Xestospongin C 5 μM
Protocol: as §2, §3

RBE4 cells [5] = test: Irradiation-induced propidium iodide dye uptake, RBE4 cells; assay type: cell-based, rat; details: 1 Gy, 5 min post-irradiation
Protocol: Cells were grown to near confluency in 4-well plates. Cultures were incubated with 1 mM propidium iodide (PI) and 200 μM 10 kDa dextran-FITC before focal irradiation and dye uptake was measured 5 min post-irradiation by measuring the fluorescence intensity of both dyes following image acquisition with a BD pathway 435 imaging system.

For CC1(C)[C@@H](OC(=O)CCC(=O)O)CC[C@]2(C)[C@H]3C(=O)C=C4[C@@H]5C[C@@](C)(C(=O)O)CC[C@]5(C)CC[C@@]4(C)[C@]3(C)CC[C@@H]12 [Carbenoxolone, carbenoxolone], the “6-CF dye spread (gap junctional dye coupling)” value (TICAE cells) was “inhibited the dye spread in all cases”, the “AUC of Ca2+ transients in recipient bystander cells” value (RBE4 cells [1]) was “reduced the area under the curve (AUC)” and the “[Ca2+]i responses in recipient cells” value (RBE4 cells [1]) was “inhibited the [Ca^2]i responses”. For the same compound, the “irradiation-induced ATP release” value (RBE4 cells [2]) was “inhibited”, the “6-CF dye spread (gap junctional dye coupling)” value (TIME cells) was “inhibited the dye spread in all cases” and the “γ-H2AX counts in the bystander zone (normalized to vehicle)” value [3] was “significant decrease”. For the same compound, the “γ-H2AX counts in the irradiated area (normalized to vehicle)” value [3] was “significant decrease”, the “γ-H2AX counts in the bystander zone (normalized to vehicle)” value (RBE4 cells [4]) was “significantly inhibited” and the “γ-H2AX counts in the irradiated zone (normalized to vehicle)” value (RBE4 cells [4]) was “not statistically significant”.
“Gap26: connexin mimetic peptide, amino acids 64-76 from the first extracellular loop of Cx43 (SEQ ID NO: 1) (VCYDKSFPISHVR; Synthetic peptide_Gap26)” was tested, and the “PI uptake in the bystander area” value (RBE4 cells [5]) was “significantly reduced; also recorded: inhibited”, the “PI uptake in the irradiated area” value (RBE4 cells [5]) was “significantly reduced; also recorded: inhibited” and the “AUC of Ca2+ transients in recipient bystander cells” value (RBE4 cells [1]) was “reduced the area under the curve (AUC)”. The “[Ca2+]i responses in recipient cells” value (RBE4 cells [1]) was “inhibited the [Ca^2]i responses”, the “irradiation-induced ATP release” value (RBE4 cells [2]) was “inhibited” and the “γ-H2AX counts in the irradiated area (normalized to vehicle)” value [3] was “only had effect in the bystander zone”. For the same compound, the “γ-H2AX counts in the bystander zone (normalized to vehicle)” value (RBE4 cells [4]) was “significantly inhibited” and the “γ-H2AX counts in the irradiated zone (normalized to vehicle)” value (RBE4 cells [4]) was “significantly inhibited”.
